Measured values taken from ChEMBL document CHEMBL1131315, “Synthesis and anticonvulsant activity of 2(3H)-benzoxazolone and 2(3H)-benzothiazolone derivatives” (J Med Chem, 1998).
The source made the active and inactive calls. No cut-off for these calls is given here.

How the values were obtained:
[1] = The compound was tested for neurologic toxicity (rotarod) test for 30 min in mice; no activity or no toxicity at 300 mg/kg; assay type: organism-based; set-up: dose 300 mg/kg; details: mouse, in vivo, 0.5 h
[2] = The compound was tested for neurologic toxicity (rotarod) test for 4 hours in mice; no activity or no toxicity at 300 mg/kg; assay type: organism-based; set-up: dose 300 mg/kg; details: mouse, in vivo
Mus musculus [3] = experiment: Anticonvulsant activity in subcutaneous pentylenetetrazole seizure test for 30 min in mice; No activity/toxicity at 300 mg/kg.; assay type: functional, organism-based; set-up: dose 300 mg/kg
Mus musculus [4] = experiment: The anticonvulsant activity in subcutaneous pentylenetetrazole seizure test (sc Met) for 4 hr in mice; no activity or no toxicity at 300 mg/kg; assay type: functional, organism-based; set-up: dose 300 mg/kg
Mus musculus [5] = experiment: The compound was tested for anticonvulsant activity in Maximal electroshock seizure test (MES) for 4 hr in mice(ip); no activity or toxicity at 300 mg/kg; assay type: functional, organism-based; set-up: dose 300 mg/kg
Mus musculus [6] = experiment: Anticonvulsant activity in Maximal electroshock seizure test at 100 mg/kg i.p. in mice.; assay type: functional, organism-based; set-up: dose 100 mg/kg
Mus musculus [7] = experiment: Inhibition of s.c. pentylenetetrazole induced seizure in mice following i.p. administration.; assay type: functional
Rattus norvegicus = experiment: The compound was tested for the effective oral dose to inhibit 50% of the anticonvulsant in rats.; assay type: functional
Mus musculus [8] = experiment: The compound was tested to inhibit 50% of induced maximal electroshock seizure in mice on ip administration; assay type: functional
Mus musculus [9] = experiment: The compound was tested to inhibit 50% of induced subcutaneous pentylenetetrazole seizure in mice on ip administration; assay type: functional
Mus musculus [10] = experiment: The compound was determined for the dose (mg/kg) by rotarod test at the time of peak neurotoxic effect in mice on ip administration; assay type: functional
[11] = (§1) The compound was determined for the dose (mg/kg) by rotarod test at the time of peak neurotoxic effect in mice on ip administration.; assay type: ADME, organism-based; details: mouse, in vivo
[12] = target: Sigma non-opioid intracellular receptor 1 (Homo sapiens) (UniProt Q99720); experiment: Ratio between the Ki(nM)values of sigma-2 and sigma-1; assay type: functional
Chain of Sigma non-opioid intracellular receptor 1 (Homo sapiens) (Q99720 whole entry): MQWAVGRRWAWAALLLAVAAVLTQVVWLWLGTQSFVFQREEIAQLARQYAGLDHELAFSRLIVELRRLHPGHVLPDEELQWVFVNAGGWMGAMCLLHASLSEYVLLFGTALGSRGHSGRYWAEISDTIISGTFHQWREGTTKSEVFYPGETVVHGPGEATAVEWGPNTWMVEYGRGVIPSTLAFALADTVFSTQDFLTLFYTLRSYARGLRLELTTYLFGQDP

[13] = The compound was tested for neurologic toxicity (rotarod) test for 30 min in mice; active at 100 mg/kg; assay type: organism-based; set-up: dose 100 mg/kg; details: mouse, in vivo, 0.5 h
Mus musculus [14] = experiment: The compound was tested for anticonvulsant activity in Maximal electroshock seizure test for 30 min in mice(ip); active at 30 mg/kg; assay type: functional, organism-based; set-up: dose 30 mg/kg
Sigma 2 receptor = experiment: Affinity on sigma 2 receptor using [3H]- DTG as radioligand
[15] = The compound was tested for time of peak effect (TPE) in hours for its toxicity in mice on ip administration.; assay type: organism-based; details: mouse, in vivo
Mus musculus [16] = experiment: Time of peak effect in mice following i.p. administration.; assay type: functional
Mus musculus [17] = experiment: The compound was tested to inhibit 50% of induced maximal electroshock seizure in mice on ip administration.; assay type: functional
Mus musculus [18] = experiment: The compound was tested for anticonvulsant activity in subcutaneous pentylenetetrazole seizure test (sc Met) for 4 hr in mice; active at 300 mg/kg; assay type: functional, organism-based; set-up: dose 300 mg/kg
Mus musculus [19] = experiment: The compound was tested for anticonvulsant activity in subcutaneous pentylenetetrazole seizure test (sc Met) for 30 min in mice; active at 300 mg/kg; assay type: functional, organism-based; set-up: dose 300 mg/kg
Mus musculus [20] = experiment: The compound was tested for anticonvulsant activity in Maximal electroshock seizure test (MES) for 4 hr in mice(ip); active at 100 mg/kg; assay type: functional, organism-based; set-up: dose 100 mg/kg
[21] = The compound was tested for neurologic toxicity (rotarod) test for 4 hours in mice; active at 300 mg/kg; assay type: organism-based; set-up: dose 300 mg/kg; details: mouse, in vivo
Mus musculus [22] = experiment: The compound was tested for anticonvulsant activity in Maximal electroshock seizure test (MES) for 4 hr in mice(ip); active at 300 mg/kg; assay type: functional, organism-based; set-up: dose 300 mg/kg
Mus musculus [23] = experiment: The compound was tested for anticonvulsant activity in subcutaneous pentylenetetrazole seizure test (sc Met) for 30 min in mice; active at 100 mg/kg; assay type: functional, organism-based; set-up: dose 100 mg/kg
[24] = The compound was tested for neurologic toxicity (rotarod) test for 30 min in mice; active at 300 mg/kg; assay type: organism-based; set-up: dose 300 mg/kg; details: mouse, in vivo, 0.5 h
Mus musculus [25] = experiment: as §1; assay type: functional

| Structure (SMILES) | Rotarod toxicity [2] | scMet (Mus musculus [3]) | scMet (Mus musculus [4]) | MES (Mus musculus [6]) | ED50 (Mus musculus [7]) [mg/kg] | Rotarod toxicity [13] | Toxicity [15] [h] | Activity (Mus musculus [16]) [h] | MES (Mus musculus [22]) | also measured |
| --- | --- | --- | --- | --- | --- | --- | --- | --- | --- | --- |
| CCC(=O)c1ccc2nc(O)sc2c1 | No activity or no toxicity at 300 mg/kg | No activity or no toxicity at 300 mg/kg | No activity or no toxicity at 300 mg/kg | No activity or toxicity at 300 mg/kg | – | – | – | – | – | Rotarod toxicity [1]: No activity or no toxicity at 300 mg/kg; MES (Mus musculus [5]): No activity or toxicity at 300 mg/kg |
| CCCC(CCC)C(=O)O [VALPROIC ACID] | – | – | – | – | 149 | – | – | – | – | ED50 (Rattus norvegicus): 490 mg/kg |
| CCC1(c2ccccc2)C(=O)NC(=O)NC1=O [PHENOBARBITAL] | – | – | – | – | – | – | – | – | – | ED50 (Mus musculus [8]): 21.8 mg/kg; ED50 (Mus musculus [9]): 13.2 mg/kg; TD50 (Mus musculus [10]): 69 mg/kg |
| CCC(=O)c1ccc2c(c1)sc(=O)n2CCN1CCCC1 | active at 100 mg/kg | No activity or no toxicity at 300 mg/kg | No activity or no toxicity at 300 mg/kg | – | > 80 | active at 100 mg/kg | 0.25 | 0.25 | – | TD50 [11]: 48.4 mg/kg; Ratio [12]: 1.6; MES (Mus musculus [14]): active at 30 mg/kg; Ki (Sigma 2 receptor): 919 nM; ED50 (Mus musculus [17]): 13.9 mg/kg; MES (Mus musculus [5]): active at 30 mg/kg |
| CCCc1ccc2nc(O)sc2c1 | – | – | – | active at 100 mg/kg | – | active at 100 mg/kg | – | – | – | scMet (Mus musculus [18]): active at 300 mg/kg; scMet (Mus musculus [19]): active at 300 mg/kg; MES (Mus musculus [20]): active at 100 mg/kg; Rotarod toxicity [21]: active at 100 mg/kg |
| CCCCCc1ccc2nc(O)oc2c1 | active at 100 mg/kg | – | active at 100 mg/kg | active at 300 mg/kg | 80.7 | active at 100 mg/kg | 1 | 0.5 | active at 300 mg/kg | TD50 [11]: 168 mg/kg; ED50 (Mus musculus [8]): 70.8 mg/kg; scMet (Mus musculus [23]): active at 100 mg/kg |
| NC(=O)N1c2ccccc2C=Cc2ccccc21 [CARBAMAZEPINE] | – | – | – | – | > 100 | – | – | – | – | ED50 (Mus musculus [17]): 8.8 mg/kg; ED50 (Rattus norvegicus): 8.5 mg/kg |
| CCC(=O)c1ccc2c(c1)oc(=O)n2CCN1CCCCC1 | active at 100 mg/kg | No activity or no toxicity at 300 mg/kg | No activity or no toxicity at 300 mg/kg | No activity or toxicity at 300 mg/kg | > 100 | active at 100 mg/kg | 0.25 | 0.25 | – | TD50 [11]: 72.9 mg/kg; Ratio [12]: 13; ED50 (Mus musculus [8]): 61 mg/kg; Ki (Sigma 2 receptor): 900 nM; MES (Mus musculus [5]): No activity or toxicity at 300 mg/kg |
| CCCCC(=O)c1ccc2c(c1)oc(=O)n2CCCN1CCCCC1 | active at 100 mg/kg | No activity or no toxicity at 300 mg/kg | No activity or no toxicity at 300 mg/kg | active at 300 mg/kg | – | active at 100 mg/kg | – | – | active at 300 mg/kg | – |
| CCC(=O)c1ccc2c(c1)sc(=O)n2CCN(C)C | – | No activity or no toxicity at 300 mg/kg | No activity or no toxicity at 300 mg/kg | – | > 130 | – | 0.25 | 0.25 | active at 30 mg/kg | Rotarod toxicity [24]: active at 300 mg/kg; MES (Mus musculus [14]): active at 30 mg/kg; ED50 (Mus musculus [17]): 21.8 mg/kg; TD50 (Mus musculus [25]): 84.5 mg/kg; Rotarod toxicity [21]: active at 300 mg/kg |
| CCCc1ccc2nc(O)oc2c1 | – | – | active at 100 mg/kg | active at 300 mg/kg | – | active at 100 mg/kg | – | – | active at 300 mg/kg | scMet (Mus musculus [23]): active at 100 mg/kg; Rotarod toxicity [21]: active at 100 mg/kg |
